Where “and” joins values, the source holds several entries; their conditions need not be identical. Equal values may be shown once. Read-outs that look alike come from different tables or passages of the source.
Assays:
[1] = Fluorescent AGEs formation in a BSA-fructose/glucose system; format: biochemical; settings: for IC50: read-out: BSA-glycation IC50
Method in brief: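 Fluorescent AGE inhibition was measured in triplicate, correcting sample and control fluorescence for BSA-free blanks. Glycation used BSA incubated with D-fructose and D-glucose, with samples dissolved in DMSO:water (1:4).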

[2] = test system: CML expression in MGO-induced HDFs; test: Glycation cell assay: CML expression in MGO-induced HDFs (IF); format: cell-based, human; settings: positive compound
Method: Based on previously reported methods ([25]), human primary dermal fibroblasts (HDFs) were induced by MGO to establish a cell model of high CML expression.
HDFs were cultured in high-glucose DMEM supplemented with 10% FBS containing 100 µg/ml of PS at 37°C in a humidified 5% CO2 incubator. Cell viability was assessed using the CCK-8 kit. HDFs were cultured in 12-well plates to approximately 70% confluence and then treated with 0.5 mmol/L of MGO for 48 h to induce glycation and the formation of CML. Subsequently, different concentrations of samples were added and co-cultured with MGO for an additional 48 h. Cells were then washed once with PBS and fixed in polyformaldehyde overnight at 4°C. Triton-X-100 solution (0.1%) was assigned to fixed cells for 5 min at room temperature to improve cell membrane permeability. After washing twice with PBS, cells were blocked in 1% BSA for 1 h, followed by incubation with the primary CML antibody (1:50) overnight at 4°C. […] Counterstaining was performed by adopting anti-fluorescence quenching and sealing liquid containing DAPI, followed by visualisation and fluorescence image capture using a microscope (Leica, Germany). ImageJ software was used to quantify CML expression from different images randomly selected in each group.

[3] = test system: type I collagen in HDFs; test: Collagen type I immunofluorescence staining in HDFs; format: cell-based, human; settings: for COL I staining: VC positive control, NT = 100%, replicates and AVE, listed as VC
Method: (§1) HDFs were cultured in DMEM with 10% (v/v) FBS and 1% PS at 37°C in a humidified 5% CO2 incubator. Cells were subcultured using pancreatin solution after reaching confluence. All experiments were performed between the third and eighth passages.
(§2) The synthesis of collagen types I and III was detected using IF ([26]) and ELISA ([27]). HDFs were digested and seeded in a 24-well culture plate on slides at a density of 50,000 cells/well in a complete medium. After reaching 80% confluency, cells were starved with the medium in the absence of serum for 16 h. Cells were then treated with positive controls or active samples (prepared in medium without serum) for an additional 48 h. For analysis and visualisation of types I and III collagens, the supernatants and remaining cell slides were both collected and analysed using ELISA kits and the IF staining method, respectively.
(§3) Collected supernatants were centrifuged at 10,000 rpm for 10 min and used for types I and III collagen ELISA, according to the manufacturer’s protocol. The remaining cell slides were washed once with PBS and fixed in polyformaldehyde overnight at 4°C. Subsequently, the slides were treated with 0.5% Triton-X100 for 5 min. After washing, cells were blocked with 1% BSA at room temperature for 1 h. Cells were then incubated with types I and type III collagen primary antibodies (1:100) for 2 h at room temperature. […] Finally, the nuclei were counter-stained with DAPI, and relevant fluorescent images were captured using a microscope. ImageJ software was used to quantify collagen expression from different images randomly selected in each group.

[4] = test system: type III collagen in HDFs; test: Collagen type III immunofluorescence staining in HDFs; format: cell-based, human; settings: for COL III staining: VC positive control, NT = 100%, replicates and AVE, listed as VC
Method: as §1, §2, §3

[5] = test system: secreted type I collagen of HDFs; test: Extracellular collagen type I ELISA on HDFs; format: cell-based, human; settings: for COL I (ELISA): VC positive control, replicates and AVE, listed as VC
Method: as §1, §2, §3

[6] = test system: secreted type III collagen of HDFs; test: Extracellular collagen type III ELISA on HDFs; format: cell-based, human; settings: VC positive control, replicates and AVE, listed as VC
Method: as §1, §2
Collected supernatants were centrifuged at 10,000 rpm for 10 min and used for types I and III collagen ELISA, according to the manufacturer’s protocol. The remaining cell slides were washed once with PBS and fixed in polyformaldehyde overnight at 4°C. Subsequently, the slides were treated with 0.5% Triton-X100 for 5 min. After washing, cells were blocked with 1% BSA at room temperature for 1 h. […] ImageJ software was used to quantify collagen expression from different images randomly selected in each group.

Compound	fluorescent AGEs IC50 [1] [µg/mL]	inhibition of fluorescent AGEs formation (BSA-抗糖化), single replicate ([1]; 15.625 ug/ml)	IC50 ([1]; lower part of sheet (compound series)) [µM]	IC50 ([1]; mean ± SD, n = 3) [µM]	BSA-glycation IC50 ([1]; upper part of sheet (extract series)) [µg/mL]	IC50 ([1]; upper part of sheet (extract series), positive control also given in μM) [µM]	inhibition of glycation (CML) [2] [%]	collagen type I expression (IF) ([3]; VC 200 μg/ml, positive control)	COL I staining [3]	COL I staining ([3]; mean) [%]	collagen type III expression (IF) ([4]; VC 200 μg/ml, positive control)	COL III staining [4]	COL III staining ([4]; mean) [%]	COL I (ELISA) [5]	COL I (ELISA) ([5]; mean) [pg/mL]	increase of secreted collagen type I levels ([5]; VC, 48 h, culture medium) [%]	COL III (ELISA) [6]	COL III (ELISA) ([6]; mean) [ng/mL]
Cl.N=C(N)NN [AG, Aminoguanidine hydrochloride, reference compound]	177.3 ± 11.6	-1.16% and 3.22%	1620 ± 111	1600	178.47 ± 12.27	1620 ± 111	88.11	–	–	–	–	–	–	–	–	–	–	–
O=C1O[C@H]([C@@H](O)CO)C(O)=C1O [vitamin C]	–	–	–	–	–	–	–	190.20 % of control	173.88% and 170.79% and 188.58% and 168.29% and 249.47%	190.20	125.90 % of control	118.22% and 137.59% and 116.52% and 131.28%	125.90	646.77 pg/mL and 611.41 pg/mL and 656.93 pg/mL	638.37	21.94	2.70 ng/mL and 2.97 ng/mL and 3.15 ng/mL	2.94

From article PMC10064984, “Anti-cyclooxygenase, anti-glycation, and anti-skin aging effect of Dendrobium officinale flowers’ aqueous extract and its phytochemical validation in aging” (Frontiers in Immunology, 2023)
